Numbers after ± are expanded uncertainties.
Conditions: Liquid; for mass density: 298.15 K, 101.33 kPa

| Structure (SMILES) | mass density | also measured |
| --- | --- | --- |
| C1COCO1 [1,3-dioxolane] | 1059 ± 0.9 kg/m3 | vapor or sublimation pressure (348.8 K): 101.33 ± 2 kPa |
| C1COCCO1 [1,4-dioxane] | 1027.9 ± 0.7 kg/m3 | vapor or sublimation pressure (374.47 K): 101.33 ± 2 kPa |
| CCCCCCCl [1-chlorohexane] | 873.5 ± 1 kg/m3 | vapor or sublimation pressure (408.07 K): 101.33 ± 2 kPa |

Now from value to molecule, other results behind:

| mass density | Structure (SMILES) | also measured |
| --- | --- | --- |
| 882 ± 0.5 kg/m3 | C1CCOC1 [tetrahydrofuran] | vapor or sublimation pressure (339.12 K): 101.33 ± 2 kPa |
| 878.8 ± 1 kg/m3 | C1CCOCC1 [tetrahydropyran] | vapor or sublimation pressure (361.23 K): 101.33 ± 2 kPa |
